From US9115133B2, “Substituted fused tricyclic compounds, compositions and medicinal applications thereof” (Advinus Therapeutics Limited, priority 2011, dated 2015)

Columns and labels:
Assay type in all cases: biochemical
Details in all cases: 200 μg/ml Poly Glu-Tyr (4:1), ATP 1 uM, 90 min room temperature, luminescence
[1] = molecular target: T1, Recombinant JAK2 (Amino acids 808-1132) (Homo sapiens, UniProt O60674); experiment: Kinase-Glo Luminescent Kinase Assay, recombinant JAK2
T1 construct: JAK2 (Amino acids 808-1132; NM_004972.3); made in house; host or cells: baculovirus expression system (Bac-to-Bac)
T1 sequence (O60674 808-1132): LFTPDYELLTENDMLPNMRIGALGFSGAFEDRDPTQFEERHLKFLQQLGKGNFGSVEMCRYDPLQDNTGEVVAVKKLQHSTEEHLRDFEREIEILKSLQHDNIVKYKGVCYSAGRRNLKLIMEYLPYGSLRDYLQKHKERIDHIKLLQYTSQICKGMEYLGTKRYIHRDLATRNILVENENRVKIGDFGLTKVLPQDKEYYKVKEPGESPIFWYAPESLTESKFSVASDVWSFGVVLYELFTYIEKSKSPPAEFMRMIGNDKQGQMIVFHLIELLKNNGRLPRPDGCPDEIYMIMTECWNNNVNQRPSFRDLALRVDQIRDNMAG
Text: Recombinant JAK1 (Amino acids 850-1154; NM_002227.2), JAK2 (Amino acids 808-1132; NM_004972.3) and JAK3 (Amino acids 781-1124; NM_000215.3) used in the studies were expressed using Invitrogen's Bac-to-Bac baculovirus expression system according to manufacturer's instructions. Adenosine 5′-triphosphate was obtained from Sigma Aldrich chemicals (Cat # A7699). Poly Glu-Tyr (4:1) sodium salt was obtained from Sigma Aldrich (Cat # P0275), Kinase Glo® Luminescent Kinase assay kit was obtained from Promega (Cat # V6713) Kinase activity was assessed by Promega Kinase-Glo® Luminescent Kinase Assay kit using 200 μg/ml Poly Glu-Tyr (4:1) as substrate and ATP at 1 uM concentration. The reactions were carried out in 384 well plates in total reaction volume of 20 uL. Reaction mixtures contained 50 mM HEPES pH 7.4, 5 mM MgCl2, 1 mM DTT, 0.01% BSA, 0.01% Tween 20. Kinase was pre-incubated with compounds or 1% DMSO for 5 min before addition of substrate and ATP to check for inhibition. Kinase reactions were carried out at room temperature for 90 min. The reactions were stopped by adding 5 μl of Kinase Glo® reagent & 10 μl of reaction mixture followed by measuring luminescence. The luminescent signal is correlated with the amount of ATP present at the end of kinase reaction and is inversely correlated with the amount of kinase activity. For each data point, % inhibition is calculated based on uninhibited reaction (without compound) which is considered as 100% activity over no enzyme or substrate controls. Dose response data is then fit using a four parameter logistic equation using Graph-pad Prism 5 software to determine inhibition constant 50 (IC50).

[2] = molecular target: T2, Recombinant JAK1 (Amino acids 850-1154) (Homo sapiens, UniProt P23458); experiment: Kinase-Glo Luminescent Kinase Assay, recombinant JAK1
T2 construct: Recombinant JAK1 (Amino acids 850-1154; NM_002227.2); made in house; host or cells: baculovirus expression system (Bac-to-Bac)
T2 sequence (P23458 850-1154): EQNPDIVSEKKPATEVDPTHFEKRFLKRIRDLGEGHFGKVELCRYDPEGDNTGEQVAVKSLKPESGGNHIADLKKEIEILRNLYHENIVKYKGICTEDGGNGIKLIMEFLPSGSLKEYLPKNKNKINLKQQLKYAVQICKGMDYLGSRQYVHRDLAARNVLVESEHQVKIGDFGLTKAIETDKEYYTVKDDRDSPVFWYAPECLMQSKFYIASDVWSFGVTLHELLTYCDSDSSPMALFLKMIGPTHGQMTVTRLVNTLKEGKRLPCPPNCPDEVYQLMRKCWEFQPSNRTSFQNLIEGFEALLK
Method in brief: (§1)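 Baculovirus-expressed kinase domains were pre-incubated 5 min with compound (1% DMSO), then reacted 90 min at room temperature with 200 μg/ml poly Glu-Tyr (4:1) and 1 uM ATP in 50 mM HEPES pH 7.4, 5 mM MgCl2. Remaining ATP was read by Kinase-Glo luminescence. IC50 came from four-parameter logistic fits.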

[3] = molecular target: T3, Recombinant JAK3 (Amino acids 781-1124) (Homo sapiens, UniProt P52333); experiment: Kinase-Glo Luminescent Kinase Assay, recombinant JAK3
T3 construct: JAK3 (Amino acids 781-1124; NM_000215.3); made in house; host or cells: baculovirus expression system (Bac-to-Bac)
T3 sequence (P52333 781-1124): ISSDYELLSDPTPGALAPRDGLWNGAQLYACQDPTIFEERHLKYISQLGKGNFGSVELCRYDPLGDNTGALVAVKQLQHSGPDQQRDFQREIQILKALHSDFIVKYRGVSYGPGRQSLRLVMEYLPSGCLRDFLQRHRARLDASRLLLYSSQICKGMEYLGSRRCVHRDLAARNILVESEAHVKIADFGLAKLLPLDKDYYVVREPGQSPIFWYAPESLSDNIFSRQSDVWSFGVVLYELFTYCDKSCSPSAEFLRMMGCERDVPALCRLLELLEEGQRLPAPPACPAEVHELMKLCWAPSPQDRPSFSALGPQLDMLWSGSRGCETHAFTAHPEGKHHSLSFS
Method in brief: as §1

Row | Structure (SMILES) | IC50 [1] [µM] | IC50 [2] [µM] | IC50 [3] [µM]
1 | CC(C)CS(=O)(=O)N1CCCC(c2ncnc3cnc4[nH]ccc4c23)C1 (stereo not drawn) [Ex. 30, 9-[1-(2-Methyl-propane-1-sulfonyl)-piperidin-3-yl]-3H-3,4,6,8-tetraaza-cyclopenta[a]naphthalene] | > 0.02 | > 0.02 | > 0.02
2 | O=S(=O)(C1CC1)N1CCCC(c2ncnc3cnc4[nH]ccc4c23)C1 (stereo not drawn) [Ex. 31, 9-(1-Cyclopropanesulfonyl-piperidin-3-yl)-3H-3,4,6,8-tetraaza-cyclopenta[a]naphthalene] | > 0.02 | > 0.02 | > 0.02
3 | CC(C)NC(=O)N1CCCC(c2ncnc3cnc4[nH]ccc4c23)C1 (stereo not drawn) [Ex. 32, 3-(3H-3,4,6,8-Tetraaza-cyclopenta[a]naphthalen-9-yl)-piperidine-1-carboxylic acid isopropylamide] | > 0.02 | > 0.02 | > 0.02
4 | CC(C)/C(=N\C#N)N1CCC[C@H](c2ccnc3cnc4[nH]ccc4c23)C1 [Ex. 43A, (R)(E)-[2-methyl-1-[3-(3H-pyrrolo[3,2-f][1,7]naphthyridin-9-yl)-1-piperidyl]propylidene]cyanamide] | > 0.02 | > 0.02 | > 0.02
5 | CCNC(=O)N1CCCC(c2ccnc3cnc4[nH]ccc4c23)C1 (stereo not drawn) [Ex. 48, N-ethyl-3-(3H-pyrrolo[3,2-f][1,7]naphthyridin-9-yl)piperidine-1-carboxamide] | > 0.02 | > 0.02 | > 0.02
6 | CC(C)CNC(=O)N1CCCC(c2ccnc3cnc4[nH]ccc4c23)C1 (stereo not drawn) [Ex. 49, N-isobutyl-3-(3H-pyrrolo[3,2-f][1,7]naphthyridin-9-yl)piperidine-1-carboxamide] | > 0.02 | > 0.02 | > 0.02
7 | CNC(=O)N1CCCC(c2ccnc3cnc4[nH]ccc4c23)C1 (stereo not drawn) [Ex. 50, N-methyl-3-(3H-pyrrolo[3,2-f][1,7]naphthyridin-9-yl)piperidine-1-carboxamide] | > 0.02 | > 0.02 | > 0.02
8 | c1cc(N2CCC(OCC3CC3)CC2)c2c(cnc3[nH]ccc32)n1 [Ex. 60, 9-[4-(cyclopropylmethoxy)-1-piperidyl]-3H-pyrrolo[3,2-f][1,7]naphthyridine] | > 0.02 | > 0.02 | 0.001 to 0.02
9 | O=C(NC1CC1)[C@@H]1CCCN(c2ccnc3cnc4[nH]ccc4c23)C1 [Ex. 61B, (3R)-N-cyclopropyl-1-(3H-pyrrolo[3,2-f][1,7]naphthyridin-9-yl)piperidine-3-carboxamide] | > 0.02 | > 0.02 | > 0.02
10 | CN(C(=O)CC(F)(F)F)C1CCCN(c2ccnc3cnc4[nH]ccc4c23)C1 (stereo not drawn) [Ex. 65, 3,3,3-trifluoro-N-methyl-N-[1-(3H-pyrrolo[3,2-f][1,7]naphthyridin-9-yl)-3-piperidyl]propanamide] | > 0.02 | > 0.02 | > 0.02
11 | CC(C)NC(=O)C1CCCN(c2ccnc3cnc4[nH]ccc4c23)C1 (stereo not drawn) [Ex. 68, N-isopropyl-1-(3H-pyrrolo[3,2-f][1,7]naphthyridin-9-yl)piperidine-3-carboxamide] | > 0.02 | > 0.02 | > 0.02
12 | CNC(=O)C1CCCN(c2ccnc3cnc4[nH]ccc4c23)C1 (stereo not drawn) [Ex. 71, N-methyl-1-(3H-pyrrolo[3,2-f][1,7]naphthyridin-9-yl)piperidine-3-carboxamide] | > 0.02 | > 0.02 | > 0.02

The next lines start with the values.

Row | IC50 [1] [µM] | IC50 [2] [µM] | IC50 [3] [µM] | Structure (SMILES)
13 | > 0.02 | > 0.02 | > 0.02 | CC(C)C(=O)N1CCCC(c2ncnc3cnc4[nH]ccc4c23)C1 (stereo not drawn) [Ex. 22, 2-Methyl-1-[3-(3H-3,4,6,8-tetraazacyclopenta[a]naphthalen-9-yl)-piperidin-1-yl]-propan-1-one]
14 | 0.001 to 0.02 | 0.001 to 0.02 | 0.001 to 0.02 | N#CCC(=O)N1CCCC(c2ncnc3cnc4[nH]ccc4c23)C1 (stereo not drawn) [Ex. 23, 3-Oxo-3-[3-(3H-3,4,6,8-tetraazacyclopenta[a]naphthalen-9-yl)-piperidin-1-yl]-propionitrile]
15 | > 0.02 | > 0.02 | > 0.02 | N#CCC(=O)N1CCC[C@@H](c2ncnc3cnc4[nH]ccc4c23)C1 [Ex. 23A, (R)3-Oxo-3-[3-(3H-3,4,6,8-tetraazacyclopenta[a]naphthalen-9-yl)-piperidin-1-yl]-propionitrile]
16 | 0.001 to 0.02 | 0.001 to 0.02 | > 0.02 | O=C(CC(F)(F)F)N1CCCC(c2ncnc3cnc4[nH]ccc4c23)C1 (stereo not drawn) [Ex. 24, 3,3,3-Trifluoro-1-[3-(3H-3,4,6,8-tetraazacyclopenta[a]naphthalen-9-yl)-piperidin-1-yl]-propan-1-one]
17 | > 0.02 | > 0.02 | > 0.02 | O=C(CC(F)(F)F)N1CCC[C@@H](c2ncnc3cnc4[nH]ccc4c23)C1 [Ex. 24A, (R)3,3,3-Trifluoro-1-[3-(3H-3,4,6,8-tetraazacyclopenta[a]naphthalen-9-yl)-piperidin-1-yl]-propan-1-one]
18 | > 0.02 | 0.001 to 0.02 | > 0.02 | O=C(CC1CC1)N1CCCC(c2ncnc3cnc4[nH]ccc4c23)C1 (stereo not drawn) [Ex. 25, 2-Cyclopropyl-1-[3-(3H-3,4,6,8-tetraazacyclopenta[a]naphthalen-9-yl)-piperidin-1-yl]-ethanone]
19 | > 0.02 | 0.001 to 0.02 | > 0.02 | O=C(C1CCOC1)N1CCCC(c2ncnc3cnc4[nH]ccc4c23)C1 (stereo not drawn) [Ex. 26, [3-(3H-3,4,6,8-Tetraaza-cyclopenta[a]naphthalen-9-yl)-piperidin-1-yl]-(tetrahydro-furan-3-yl)-mathanone]
20 | > 0.02 | > 0.02 | > 0.02 | CCC(=O)N1CCCC(c2ncnc3cnc4[nH]ccc4c23)C1 (stereo not drawn) [Ex. 27, 1-[3-(3H-3,4,6,8-Tetraaza-cyclopenta[a]naphthalen-9-yl)-piperidin-1-yl]-propan-1-one]
21 | 0.001 to 0.02 | 0.001 to 0.02 | > 0.02 | CC(C)(C)C(=O)N1CCCC(c2ncnc3cnc4[nH]ccc4c23)C1 (stereo not drawn) [Ex. 28, 2,2-Dimethyl-1-[3-(3H-3,4,6,8-tetraaza-cyclopenta[a]naphthalen-9-yl)-piperidin-1-yl]-propan-1-one]
22 | > 0.02 | > 0.02 | > 0.02 | O=C(C1CC1)N1CCCC(c2ncnc3cnc4[nH]ccc4c23)C1 (stereo not drawn) [Ex. 29, Cyclopropyl-[3-(3H-3,4,6,8-tetraaza-cyclopenta[a]naphthalen-9-yl)-piperidin-1-yl]-methanone]
23 | 0.001 to 0.02 | > 0.02 | 0.001 to 0.02 | CC(C)/C(=N\C#N)N1CCCC(c2ccnc3cnc4[nH]ccc4c23)C1 (stereo not drawn) [Ex. 43, (E)-[2-methyl-1-[3-(3H-pyrrolo[3,2-f][1,7]naphthyridin-9-yl)-1-piperidyl]propylidene]cyanamide]
24 | 0.001 to 0.02 | 0.001 to 0.02 | 0.001 to 0.02 | CC(C)/C(=N\C#N)N1CCC[C@@H](c2ccnc3cnc4[nH]ccc4c23)C1 [Ex. 43B, (S)(E)-[2-methyl-1-[3-(3H-pyrrolo[3,2-f][1,7]naphthyridin-9-yl)-1-piperidyl]propylidene]cyanamide]
25 | 0.001 to 0.02 | 0.001 to 0.02 | > 0.02 | N#C/N=C(\CC(F)(F)F)N1CCCC(c2ccnc3cnc4[nH]ccc4c23)C1 (stereo not drawn) [Ex. 44, (E)-[3,3,3-trifluoro-1-[3-(3H-pyrrolo[3,2-f][1,7]naphthyridin-9-yl)-1-piperidyl]propylidene]cyanamide]
26 | 0.001 to 0.02 | 0.001 to 0.02 | > 0.02 | N#C/N=C(\CC(F)(F)F)N1CCC(c2ccnc3cnc4[nH]ccc4c23)C1 (stereo not drawn) [Ex. 45, (E)-[3,3,3-trifluoro-1-[3-(3H-pyrrolo[3,2-f][1,7]naphthyridin-9-yl)pyrrolidin-1-yl]propylidene]cyanamide]
27 | 0.001 to 0.02 | 0.001 to 0.02 | 0.001 to 0.02 | CN(C)C(=O)N1CCCC(c2ccnc3cnc4[nH]ccc4c23)C1 (stereo not drawn) [Ex. 47, N,N-dimethyl-3-(3H-pyrrolo[3,2-f][1,7]naphthyridin-9-yl)piperidine-1-carboxamide]
28 | 0.001 to 0.02 | 0.001 to 0.02 | 0.001 to 0.02 | c1cc(N2CCCC(OCC3CC3)C2)c2c(cnc3[nH]ccc32)n1 (stereo not drawn) [Ex. 56, 9-[3-(cyclopropylmethoxy)-1-piperidyl]-3H pyrrolo[3,2f][1,7] naphthyridine]
